Results: ChEMBL document CHEMBL3044730, “Synthesis, antimycobacterial, antiviral, antimicrobial activities, and QSAR studies of nicotinic acid benzylidene hydrazide derivatives” (Med Chem Res, 2012)
In brackets after ≈: the same amount, converted by molar mass.

Columns and labels:
[1] = test system: Human immunodeficiency virus 1; test: Antiviral activity against Human immunodeficiency virus 1 IIIB infected MT4 cells assessed as inhibition of virus-induced cytopathic effect after 4 days by MTT assay; type: functional, organism-based; details: MT4, 96 h
Human alphaherpesvirus 1 [2] = test: Antiviral activity against Human herpesvirus 1 strain KOS infected in human HEL cells assessed as inhibition of virus-induced cytopathicity by microscopy by microscopy; type: functional, organism-based; details: Human alphaherpesvirus 1, KOS
Staphylococcus aureus = test: Antimicrobial activity against Staphylococcus aureus after 24 hr by serial dilution method; type: functional; design: unit not given here
[3] = Cytotoxicity against Homo sapiens (human) HeLa cells assessed as alteration in cell morphology by microscopy; type: cell-based
[4] = test system: Human herpesvirus 5 strain AD169; test: Antiviral activity against Human herpesvirus 5 strain AD169 Davis infected human HEL cells assessed as inhibition of virus-induced cytopathicity by microscopy; type: functional, organism-based; details: Human betaherpesvirus 5, Davis
[5] = Cytotoxicity against Homo sapiens (human) HEL cells assessed as alteration in cell morphology by microscopy; type: cell-based
[6] = test system: Vesicular stomatitis virus; test: Antiviral activity against Vesicular stomatitis virus infected human HeLa cells assessed as inhibition of virus-induced cytopathicity by microscopy; type: functional, organism-based
[7] = test system: Mycobacterium tuberculosis; test: Antimicrobial activity against Mycobacterium tuberculosis by agar dilution method; type: functional
Punta Toro virus = test: Antiviral activity against Punta Toro virus infected Vero cells assessed as inhibition of virus-induced cytopathicity; type: functional, organism-based
Candida albicans [8] = test: Antimicrobial activity against Candida albicans after 2 days by serial dilution method; type: functional; design: unit not given here
Vaccinia virus = test: Antiviral activity against Vaccinia virus infected human HEL cells assessed as inhibition of virus-induced cytopathicity by microscopy; type: functional, organism-based; details: Orthopoxvirus vaccinia
[9] = Cytotoxicity against Chlorocebus aethiops (African green monkey) Vero cells assessed as alteration in cell morphology by microscopy; type: cell-based; details: chlorocebus sabaeus
Coxsackievirus B4 [10] = test: Antiviral activity against Human coxsackievirus B4 infected Vero cells assessed as inhibition of virus-induced cytopathicity; type: functional, organism-based; details: Enterovirus B
[11] = test system: Mammalian orthoreovirus 1; test: Antiviral activity against Mammalian orthoreovirus 1 infected Vero cells assessed as inhibition of virus-induced cytopathicity by microscopy; type: functional, organism-based; details: Mammalian orthoreovirus 1, Vero
[12] = test system: Human immunodeficiency virus 2; test: Antiviral activity against Human immunodeficiency virus type 2 (ISOLATE ROD) infected MT4 cells assessed as inhibition of virus-induced cytopathic effect after 4 days by MTT assay; type: functional, organism-based; details: Human immunodeficiency virus 2, ISOLATE ROD, MT4, 96 h
[13] = test system: Human herpesvirus 3 strain Oka vaccine; test: Antiviral activity against Human herpesvirus 3 strain Oka vaccine OKA 07-1 (Varicella zoster virus) infected in human HEL cells assessed as inhibition of virus-induced cytopathicity; type: functional, organism-based; details: Human alphaherpesvirus 3, OKA 07-1, HEL
Sindbis virus = test: Antiviral activity against Sindbis virus infected Vero cells assessed as inhibition of virus-induced cytopathicity; type: functional, organism-based
Human alphaherpesvirus 1 [14] = test: Antiviral activity against TK(-) aciclovir-resistant Human herpesvirus 1 strain KOS infected in human HEL cells assessed as inhibition of virus-induced cytopathicity; type: functional, organism-based; details: Human alphaherpesvirus 1, KOS
Coxsackievirus B4 [15] = test: Antiviral activity against Human coxsackievirus B4 infected human HeLa cells assessed as inhibition of virus-induced cytopathicity by microscopy; type: functional, organism-based; details: Enterovirus B
Human respirovirus 3 = test: Antiviral activity against Human parainfluenza virus 3 infected Vero cells assessed as inhibition of virus-induced cytopathicity by microscopy; type: functional, organism-based; details: Human respirovirus 3, Vero
Human alphaherpesvirus 2 = test: Antiviral activity against Human herpesvirus 2 strain G infected human HEL cells assessed as inhibition of virus-induced cytopathicity by microscopy; type: functional, organism-based; details: Human alphaherpesvirus 2, strain G
Candida albicans [16] = test: Antimicrobial activity against Candida albicans after 7 days by serial dilution method; type: functional; design: unit not given here
Bacillus subtilis = test: Antimicrobial activity against Bacillus subtilis after 24 hr by serial dilution method; type: functional; design: unit not given here
[17] = Cytotoxicity against Homo sapiens (human) MT4 cells after 4 days by MTT assay; type: cell-based
[18] = test system: Respiratory syncytial virus; test: Antiviral activity against Respiratory syncytial virus infected human HeLa cells assessed as inhibition of virus-induced cytopathicity by microscopy; type: functional, organism-based
Escherichia coli = test: Antimicrobial activity against Escherichia coli after 24 hr by serial dilution method; type: functional; design: unit not given here

| SMILES | EC50 [1] | EC50 (Human alphaherpesvirus 1 [2]) | -logMIC (Staphylococcus aureus) | MCC [3] | EC50 [4] | CC50 [5] | MCC [5] | EC50 [6] | MIC [7] | EC50 (Punta Toro virus) | -logMIC (Candida albicans [8]) | EC50 (Vaccinia virus) | MCC [9] | EC50 (Coxsackievirus B4 [10]) | EC50 [11] | EC50 [12] | EC50 [13] | EC50 (Sindbis virus) | EC50 (Human alphaherpesvirus 1 [14]) | EC50 (Coxsackievirus B4 [15]) | other results |
| --- | --- | --- | --- | --- | --- | --- | --- | --- | --- | --- | --- | --- | --- | --- | --- | --- | --- | --- | --- | --- | --- |
| O=C(N/N=C/c1ccccc1Br)c1cccnc1 | > 0.22 µg/mL | > 20 µg/mL | 1.09 | > 100 µg/mL | > 100 µg/mL | 2.6 µg/mL (≈ 8.55 µM) | 100 µg/mL | > 100 µg/mL | > 25 µg/mL | > 100 µg/mL | 1.39 | > 20 µg/mL | > 100 µg/mL | > 100 µg/mL | > 100 µg/mL | > 0.22 µg/mL | > 51 µg/mL | > 100 µg/mL | > 20 µg/mL | > 100 µg/mL | EC50 (Human respirovirus 3): > 100 µg/mL; EC50 (Human alphaherpesvirus 2): > 20 µg/mL; -logMIC (Candida albicans [16]): 1.69; -logMIC (Bacillus subtilis): 1.39; CC50 at 96 h [17]: ≥ 0.22 µg/mL; EC50 [18]: > 100 µg/mL; -logMIC (Escherichia coli): 1.39 |
| O=C(N/N=C/c1cccc(O)c1)c1cccnc1 | > 98 µg/mL | > 100 µg/mL | 1.29 | > 100 µg/mL | > 100 µg/mL | > 100 µg/mL | > 100 µg/mL | > 100 µg/mL | > 25 µg/mL | > 100 µg/mL | 1.28 | > 100 µg/mL | > 100 µg/mL | > 100 µg/mL | > 100 µg/mL | > 98 µg/mL | > 100 µg/mL | > 100 µg/mL | > 100 µg/mL | > 100 µg/mL | EC50 (Human respirovirus 3): > 100 µg/mL; EC50 (Human alphaherpesvirus 2): > 100 µg/mL; -logMIC (Candida albicans [16]): 1.29; -logMIC (Bacillus subtilis): 1.29; CC50 at 96 h [17]: 98 µg/mL (≈ 406 µM); EC50 [18]: > 100 µg/mL; -logMIC (Escherichia coli): 1.29 |
| O=C(N/N=C/c1ccc([N+](=O)[O-])cc1)c1cccnc1 | > 0.1 µg/mL | > 0.8 µg/mL | 1.03 | 0.8 µg/mL | > 0.16 µg/mL | < 0.16 µg/mL | ≥ 0.8 µg/mL | > 0.16 µg/mL | > 25 µg/mL | > 0.8 µg/mL | 1.33 | > 0.8 µg/mL | ≥ 0.8 µg/mL | > 0.8 µg/mL | > 0.8 µg/mL | > 0.1 µg/mL | > 0.16 µg/mL | > 0.8 µg/mL | > 0.8 µg/mL | > 0.16 µg/mL | EC50 (Human respirovirus 3): > 0.8 µg/mL; EC50 (Human alphaherpesvirus 2): > 0.8 µg/mL; -logMIC (Candida albicans [16]): 1.33; -logMIC (Bacillus subtilis): 1.33; CC50 at 96 h [17]: 0.1 µg/mL (≈ 0.37 µM); EC50 [18]: > 0.16 µg/mL; -logMIC (Escherichia coli): 1.94 |
| COc1ccc(/C=N/NC(=O)c2cccnc2)cc1 | > 99 µg/mL | > 100 µg/mL | 1.31 | > 100 µg/mL | > 100 µg/mL | > 100 µg/mL | > 100 µg/mL | > 100 µg/mL | > 25 µg/mL | > 100 µg/mL | 1.31 | > 100 µg/mL | > 100 µg/mL | > 100 µg/mL | > 100 µg/mL | > 99 µg/mL | > 100 µg/mL | > 100 µg/mL | > 100 µg/mL | > 100 µg/mL | EC50 (Human respirovirus 3): > 100 µg/mL; EC50 (Human alphaherpesvirus 2): > 100 µg/mL; -logMIC (Candida albicans [16]): 1.61; -logMIC (Bacillus subtilis): 1.31; CC50 at 96 h [17]: 99 µg/mL (≈ 388 µM); EC50 [18]: > 100 µg/mL; -logMIC (Escherichia coli): 1.31 |
| O=C(N/N=C/c1cccc(Br)c1)c1cccnc1 | > 66 µg/mL | > 100 µg/mL | 1.09 | ≥ 100 µg/mL | > 100 µg/mL | 55 µg/mL (≈ 181 µM) | > 100 µg/mL | > 100 µg/mL | > 25 µg/mL | > 100 µg/mL | 1.38 | > 100 µg/mL | ≥ 100 µg/mL | > 100 µg/mL | > 100 µg/mL | > 66 µg/mL | > 100 µg/mL | > 100 µg/mL | > 100 µg/mL | > 100 µg/mL | EC50 (Human respirovirus 3): > 100 µg/mL; EC50 (Human alphaherpesvirus 2): > 100 µg/mL; -logMIC (Candida albicans [16]): 1.99; -logMIC (Bacillus subtilis): 1.39; CC50 at 96 h [17]: 66 µg/mL (≈ 217 µM); EC50 [18]: > 100 µg/mL; -logMIC (Escherichia coli): 1.39 |
